For two compounds, IC50 and inhibition in vivo results are on record in patent US5015661A, “Chromanes and their pharmaceutical compositions and methods” (Hoffmann-La Roche Inc., priority 1989, dated 1991).

The target of test [1] is T1, Δ^5 -lipoxygenase from rat basophilic leukemia (RBL-1) cells (Rattus norvegicus, UniProt P12527).
T1 construct: endogenous in cells; host or cells: RBL-1 rat basophilic leukemia cells (ATCC CRL 1378); 113,000×g supernatant (cytosolic fraction)
T1 sequence (P12527 1-673): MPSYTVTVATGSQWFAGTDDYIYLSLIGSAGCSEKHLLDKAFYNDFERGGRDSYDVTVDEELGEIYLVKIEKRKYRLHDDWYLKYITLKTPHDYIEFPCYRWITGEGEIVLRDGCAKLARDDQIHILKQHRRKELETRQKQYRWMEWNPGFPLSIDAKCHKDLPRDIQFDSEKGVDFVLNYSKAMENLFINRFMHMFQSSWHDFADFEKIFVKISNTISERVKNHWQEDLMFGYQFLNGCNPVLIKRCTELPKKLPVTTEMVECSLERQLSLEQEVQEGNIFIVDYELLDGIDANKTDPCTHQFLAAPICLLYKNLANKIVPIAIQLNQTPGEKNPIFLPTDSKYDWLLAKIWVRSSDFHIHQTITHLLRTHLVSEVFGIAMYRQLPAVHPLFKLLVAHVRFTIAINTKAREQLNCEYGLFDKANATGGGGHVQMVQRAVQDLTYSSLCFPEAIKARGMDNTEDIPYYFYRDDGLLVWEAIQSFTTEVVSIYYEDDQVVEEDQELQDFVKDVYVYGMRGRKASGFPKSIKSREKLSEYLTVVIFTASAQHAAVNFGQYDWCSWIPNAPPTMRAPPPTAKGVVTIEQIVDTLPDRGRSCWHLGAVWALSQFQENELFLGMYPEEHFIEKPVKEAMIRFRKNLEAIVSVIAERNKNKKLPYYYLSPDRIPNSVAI
Briefly: In vitro test for Δ^5 -lipoxygenase inhibitors (5-LO), RBL-1 cell enzyme, 5-HETE radioimmunoassay. It is filed as biochemical. To be noted: RBL-1 5-LO; 10 min preincubation; 8.25 μM arachidonic acid, 10 min at 37° C.; 5-HETE formation; read-out: 5-LO IC-50. How it is done:
IN VITRO TEST FOR Δ^5 -LIPOXYGENASE INHIBITORS Compounds of formula I of the invention were tested for their effect on Δ^5 -lipoxygenase from rat basophilic leukemia (RBL-1) cells. Materials. RBL-1 cells (CRL 1378) were obtained from the American TYpe Culture Collection, Rockville, MD. DMEM and glutamine were purchased from Flow Labs, McLean, VA. FBS (Gibco, Grand Island, NY) was heat-inactivated for 1 hour at 56° C. Reagents for protein determinations were obtained from Biorad, Rockville Center, NY. Arachidonic acid (approx. 99%), ATP (disodium slat), BHT, dextran (clinical grade), tetrasodium EDTA, gelatin, gentamycin sulfate solution, reduced glutathione, 1 M HEPES buffer, indomethacin, NaCl, reduced NADpH, Trizma 7.2, and Trizma 8.5 were purchased from Sigma Chemical, St. Louis, MO. CaCl2 dihydrate, Norit A charcoal, and citric acid monohydrate were obtained from Fisher Scientific, Pittsburgh, PA. […] MA. A synthetic 5-HETE standard was supplied by Dr. M. Rosenberger, Dept. of Medicinal Chemistry, Hoffmann-La Roche, Nutley, NJ; [see Corey, E.J., and Hashimoto, S. (1981 ) Tet. Letters, 22, 299-302 for method of preparation]. Ecoscint liquid sointillation fluid was purchased from National Diagnostics, Sommerville, NJ. Isolation of 5-lipoxygenase. […] Approximately 7-9 days after thawing, RBL-1 cells growing in log phase were seeded at a density of 7500 viable cells/ml in a closed 89-liter spinner flask. The cells were stirred constantly for 3-4 days at 37° C. until they reached a density greater than 500,000/ml but less than 800,00/ml. RBL-1 cells were harvested by centrifugation at 4° C. at 1500×g for 10 minutes and were washed 3 times with ice cold 0.05 M tris-HCl, pH 7.2, tetrasodium EDTA (buffer 1). The cells were washed last in 0.05 M Tris-HCl containing 14 μM indomethacin, 1 mM glutathione, 1.5 mM NaCl, and 1 mM tetrasodium EDTA (buffer 2), resuspended at a density of 5×108'/ml (approximately 10 ml) and disrupted manually at 4° C. using a 40 ml Dounce (type A pestle) homogenizer. After 5 minutes of homogenization. 95% cell lysis was confirmed by phase contrast microscopy. The broken cells were diluted 1:2 with buffer 2 and centrifuged at 12,380×g for 10 minutes at 4° C. to pellet cellular debris and granules. The 12,380×g supernatant was centrifuged at 113,000×g for 60 minutes to pellet microsomes. The high-speed supernatant (5.9±0.48 mg/ml protein) was frozen immediately in 1 ml aliquots using a dry ice/acetone bath. The isolated cytosolic fraction was stored in liquid N2 for up to 8 weeks without loss of 5-LO enzyme activity. Lipoxygenase Assay. Compounds Were dissolved at 25 mM concentration in DMSO, then diluted to final concentrations using 95% ethanol. For a typical enzyme assay, the partially purified 5-LO preparation was preincubated with drug or vehicle for 10 minutes at 30° C. The assay tubes were then transferred at a 37° C. water bath where they received arachidonic acid (8.25 μM final concentration) to initiate 5-LO activity. In addition to enzyme and substrate, each reaction tube contained: 12.5 μmoles of Tris-HCl (pH 7.2), 25 nmoles glutathione, 0.35 nmoles indomethacin and 1.25 μmoles of CaCl2 and ATP to yield a total of volume of 250 μl. The enzyme reaction was terminated after 10 minutes by the addition of 75μl […] citric acid to yield pH 3.5. The samples were immediately cooled on ice and neutralized by dilution with 0.05 M Tris-HCl, pH 8.5, which contained 25 mg/1 BHT. A boiled cytosol control was placed at the end of each assay to measure non-enzymatic oxidation of arachidonic acid. The mean specific activity of the 5-LO enzyme preparation was approximately 66.16±14.39 pmol 5-HETE/min/mg protein. Radioimmunoassay for 5-HETE. Under the assay conditions described, the 5-LO catalyzed the conversion of arachidonic acid to 5-HPETE which, as a consequence o peroxidase activity, was reduced to 5-HETE. A specific radioimmunoassay was employed to quantitate the amount (pmoles) of 5-HETE formed during the enzyme reaction. […]

The subject of test [2] is arachidonic acid-induced mouse ear edema. The experiment in a line: Mouse ear edema test (in vivo), arachidonic acid-induced. To be noted: 1 mg topical, CD-1 male mice, 0.5 mg arachidonic acid 0.5 or 4 hours later, ear biopsy weight after 1 hour, read-out: EAR EDEMA % INHIB. 1 mg. The procedure:
MOUSE EAR EDEMA TEST (IN VIVO)
In this animal model system, the application of arachidonic acid to the ear results in the biosynthesis of the metabolic products […]-6,8,11,14-eicosatetraenoic acid (5-HETE), leukotriene B4 (LTB4), leukotriene C4 (LTC4), […]-5,8,10,14-eicosatetraenoic acid (12-HETE), and prostaglandin E2 (PGE2) at the site of application, followed by the influx of neutrophils into the site and the rapid development of edema within 30 to 60 minutes (See, for instance, Young, Wagner and Spries, "Tachyphylaxis in 12-O-Tetradecanoylphorbol Acetate And Arachidonic Acid-Induced Ear Edma," J. Invest. Dermatol. 80:48 (1983) and Hames, Opas and Bonney, "Arachidonic Acid MetaboIites in Mouse Ear Edma" Advances in Inflammation Research. 11:57 (1986).
CD-1 male mice weighing 15 to 25 g were employed, and they were designated as follows: (1) Control Group, in which no arachidonic acid or test compound was to be applied, (2) Arachidonic Acid-Treated Group, in which no test compound was to be applied, and (3) Treated Group, in which the test compound was to be applied first, followed by the application of arachidonic acid.
In the case of the Group (3) animals, the test compound, dissolved in acetone, was applied to the dorsal surface of the right ear of the mouse with a 25-microliter pipette or, with the dose of the test compound being varied. After 0.5 hours in some cases and 4 hours in others, the arachidonic acid was topically applied in the same manner as above to the pretreated ear areas. In each case of arachidonic acid application, an amount of 0.5 mg dissolved in 25 microliters of acetone was used. After 1 hour, the mice were sacrificed by carbon dioxide inhalation. A 6mm-diameter standard biopsy punch was used to obtain a uniform tissue sample from the ear of each mouse so treated, and the tissue samples were weighted to the nearest 0.1 mg. The percent inhibition of ear edema formation was calculated as follows: [formula]

For `COc1cc(C=O)cc2cc(C3(C)CCc4c(C)c(O)c(C)c(C)c4O3)oc12` (racemic) [Example 54, rac-2-(3,4-Dihydro-6-hydroxy-2,5,7,8-tetramethyl-2H-1-benzopyran-2-yl)-7-methoxy-5-benzofurancarboxaldehyde], the IC50 in test [1] was 0.001 µM. The inhibition in vivo at 1 mg in test [2] is 40%.

In the case of `Cc1c(C)c2c(c(C)c1O)CCC(C)(CCc1ccccc1)O2` (stereo not shown) [Example 56, 3,4-Dihydro-2,5,7,8-tetramethyl-2-(2-phenylethyl)-2H-1-benzopyran-6-ol], the IC50 in test [1] is 0.11 µM. For the same compound, in test [2], the inhibition in vivo at 1 mg turned out to be 64%.
